Experimental data taken from patent US11414377B2, “Modulator of metabotropic and ionotropic transmembrane receptors and use thereof” (IBD THERAPEUTICS LLC, priority 2018, dated 2022).

Experiments:
female balb/c mice = assay: Oxazolone-induced inflammatory bowel disease model; type: in vivo; settings: scored at 72 hours, control 2.00 ± 0.21
Experimental: The study of the activity of Compound I on the oxazolone-induced inflammatory bowel disease model (ulcerative Colitis and Crohn's disease model) was carried out by means of a standard procedure (Heller F., Fuss I. J., Nieuwenhuis E. E., Blumberg R. S., Strober W. Oxazolone colitis, a Th2 colitis model resembling ulcerative colitis, is mediated by IL-13-producing NK-T cells//Immunity. 2002. P. 629-638).
The study was carried out on female balb/c mice. A 3.5 F catheter was introduced into the large intestine to a depth of 3-4 cm. Then, 150 μl of 1% oxazolone solution in 50% ethanol was slowly introduced into the colon lumen, the catheter was slowly removed and the mouse was kept in a vertical position (upside down) for 60 seconds to avoid the introduced solution flowing-out. Experimental animals were returned to the cages and the animal was kept in the warm. Compound I was administered intragastrically, three times: 1 hour, 25 hours and 49 hours after the rectal administration of oxazolone. 72 hours later after the rectal administration of oxazolone, the macroscopic assessment of intestinal wall damage is carried out with the help of score scale: 0 points—no lesions, 1 point—hyperemia, no ulcers, 2 points—hyperemia and thickening of the intestinal wall, no ulcers, 3 points—one ulcer without thickening of the intestine wall, 4 points—2 or more of the site of ulceration or inflammation, 5 points—2 or more severe sites of ulcerations and inflammation, or one site of ulceration/inflammation affecting >1 cm in length of the intestine, 6-10 points—the lesion affects >2 cm in length of the intestine, the score increases by 1 point per each 1 cm that is damaged.
For all data, descriptive statistics is applied: the arithmetic mean (M) and the standard error of the mean (m) are counted up. The normality of distribution of the values obtained in the course of the experiment was checked with the aid of the Shapiro-Wilk test. […] Distinctions were determined at 5% at a level of confidence.

human NK1R = biological target: T1, human NK1R (Homo sapiens, UniProt P25103); assay: Effect on activity of tachykinin receptor type 1 (intracellular calcium, fluorescence); type: cell-based; settings: U373 cells expressing human NK1R, agonist [Sar9,Met(O2)11]-SP 1 nM, read-out: IC50, antagonist of tachykinin receptor type 1
T1 construct: U373 cells expressing human NK1R were used in the experiment; endogenous in cells; host or cells: U373 cells
Experimental: Compound I was dissolved in DMSO to a concentration of 100 mM; then the stock solution was serially diluted with DMSO. The maximal start concentration of substance is 100 μM. The effect was determined at 8 concentrations of test compound, each concentration was investigated twice. U373 cells expressing human NK1R were used in the experiment, said cells after the preincubation with an agonist [Sar9,Met(O2)11]-SP (1 nM) were incubated with Compound I. The activity of receptors was determined by the intracellular calcium concentration using fluorescence spectroscopy (Glia. 1992; 6(2):89-95).

male balb/c mice = assay: Open field test, functional state of the central nervous system of mice; type: in vivo; settings: for The number of acts of defecation within 15 minutes: control 0.2 ± 0.1; for The number of washes within 15 minutes (grooming): control 8.0 ± 1.5; for Number of standing up on hind legs in 15 minutes (vertical activity): control 67.1 ± 3.5; for Number of squares crossed within 15 minutes (horizontal activity): control 443.3 ± 15.6; for General physical activity for 15 minutes: control 518.4 ± 15.3
Experimental: For the final confirmation of the safety of Compound I at the oral administration, the study of the effect of Compound I on the functional state of the central nervous system of mice in the open field test was carried out. “Open field” test consists in the evaluation of motor and research activities, orientation reaction and emotional reactivity in the registration of spontaneous behaviour of animals. The study was carried out according to the standard technique (Buresh Y, Bureshova O., Joseph P. Houston. Methods and main experiments to study the brain and behavior (Moscow, 1991, pp. 119-122).
The study was carried out on male balb/c mice, the individual weight of which deviates from the mean value within the sex of no more than ±10%.
Compound I was administered once, intragastrically. The evaluation of the effect on the central nervous system was carried out 2 hours after the administration of Compound I in the study of the approximate research behaviour of mice in the “open field”. The experimental “open field” facility was a chamber of 100×100×60 cm in size, with a square floor and white walls. The floor of the chamber is divided into 16 squares, in each square there is the round orifice having 6 cm in diameter. The chamber is illuminated by the incandescent electric lamp having a power of 100 watts, located at a height of 1 m from the floor of the chamber. The animal was placed in one of the corners of the chamber and for 15 minutes the number of horizontal squares crossed by it (horizontal activity), getting up on its hind legs (vertical activity), washing (grooming), and defecation by the number of fecal balls were recorded. Then the total motor activity was calculated, the activity was calculated as the sum of the crossed horizontal squares, standing on the hind legs and washing.
The obtained data were checked using the Grubb's test for the presence of the largest or smallest abnormal observation (ejection) in the sample. Values determined “to be eliminated” in this test were not used for further assay. For all data, descriptive statistics was used: a mean value (M) and standard error of the mean value (m) were counted up. The normality of distribution of the values obtained in the course of the experiment was checked with the aid of the Kolmogorov-Smirnov test. In the case of normal distribution, Student's t-test (t-test) was used to evaluate the inter-group distinctions. In the case of the distribution that is other than the normal one the Kruskalll-Wallis test with Dann's post hoc test was used for the comparison of several groups. Distinctions were determined at 5% at a level of confidence.

[1] = 0.75 mg/kg intragastrically 2 hours prior
[2] = 1.5 mg/kg intragastrically 2 hours prior
[3] = 2.5 mg/kg intragastrically 2 hours prior
[4] = 5 mg/kg intragastrically 2 hours prior
[5] = 10 mg/kg intragastrically 2 hours prior
[6] = 20 mg/kg intragastrically 2 hours prior
[7] = 30 mg/kg intragastrically 2 hours prior

T1 sequence (P25103 whole entry): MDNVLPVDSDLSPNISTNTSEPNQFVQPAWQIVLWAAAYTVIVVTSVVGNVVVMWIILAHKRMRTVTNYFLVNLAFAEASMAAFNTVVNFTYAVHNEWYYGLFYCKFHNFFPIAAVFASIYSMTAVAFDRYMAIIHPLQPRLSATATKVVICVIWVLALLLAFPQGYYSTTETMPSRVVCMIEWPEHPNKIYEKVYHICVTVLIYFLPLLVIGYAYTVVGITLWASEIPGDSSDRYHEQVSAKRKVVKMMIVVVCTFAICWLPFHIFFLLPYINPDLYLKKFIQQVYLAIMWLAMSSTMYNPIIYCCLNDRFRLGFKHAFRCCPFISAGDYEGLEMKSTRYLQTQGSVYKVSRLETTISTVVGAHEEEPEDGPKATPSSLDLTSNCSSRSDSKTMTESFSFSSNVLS

O=C(Cc1ccc(O)cc1)N[C@@H](Cc1ccccc1)C(=O)NCCc1ccccc1 [Compound I, 2-phenylethylamide N-(p-hydroxyphenylacetyl)phenylalanine]
The degree of colon wall damage (female balb/c mice; 10 mg/kg, 1, 25 and 49 hours after oxazolone): 2.20 ± 0.96 points
The degree of colon wall damage (female balb/c mice; 20 mg/kg intragastrically 1, 25 and 49 hours after oxazolone): 0.00 ± 0.00& points
IC50 (human NK1R): 59 µM
The number of acts of defecation within 15 minutes (male balb/c mice; [1]): 0.2 ± 0.1
The number of washes within 15 minutes (grooming) (male balb/c mice; [1]): 7.2 ± 1.4
Number of standing up on hind legs in 15 minutes (vertical activity) (male balb/c mice; [1]): 69.9 ± 4.3
Number of squares crossed within 15 minutes (horizontal activity) (male balb/c mice; [1]): 468.5 ± 13.0
General physical activity for 15 minutes (male balb/c mice; [1]): 545.6 ± 16.5
The number of acts of defecation within 15 minutes (male balb/c mice; [2]): 1.6 ± 0.6
The number of washes within 15 minutes (grooming) (male balb/c mice; [2]): 8.5 ± 1.6
Number of standing up on hind legs in 15 minutes (vertical activity) (male balb/c mice; [2]): 63.0 ± 4.2
Number of squares crossed within 15 minutes (horizontal activity) (male balb/c mice; [2]): 414.2 ± 24.1
General physical activity for 15 minutes (male balb/c mice; [2]): 485.7 ± 24.8
The number of acts of defecation within 15 minutes (male balb/c mice; [3]): 0.0 ± 0.0
The number of washes within 15 minutes (grooming) (male balb/c mice; [3]): 8.6 ± 1.6
Number of standing up on hind legs in 15 minutes (vertical activity) (male balb/c mice; [3]): 72.8 ± 3.5
Number of squares crossed within 15 minutes (horizontal activity) (male balb/c mice; [3]): 459.5 ± 19.0
General physical activity for 15 minutes (male balb/c mice; [3]): 540.9 ± 18.0
The number of acts of defecation within 15 minutes (male balb/c mice; [4]): 1.5 ± 0.2
The number of washes within 15 minutes (grooming) (male balb/c mice; [4]): 2.3 ± 1.0
Number of standing up on hind legs in 15 minutes (vertical activity) (male balb/c mice; [4]): 71.7 ± 4.4
Number of squares crossed within 15 minutes (horizontal activity) (male balb/c mice; [4]): 480.6 ± 22.1
General physical activity for 15 minutes (male balb/c mice; [4]): 554.6 ± 23.9
The number of acts of defecation within 15 minutes (male balb/c mice; [5]): 0.0 ± 0.0
The number of washes within 15 minutes (grooming) (male balb/c mice; [5]): 6.8 ± 1.3
Number of standing up on hind legs in 15 minutes (vertical activity) (male balb/c mice; [5]): 66.1 ± 3.3
Number of squares crossed within 15 minutes (horizontal activity) (male balb/c mice; [5]): 449.2 ± 15.6
General physical activity for 15 minutes (male balb/c mice; [5]): 522.1 ± 16.5
The number of acts of defecation within 15 minutes (male balb/c mice; [6]): 0.0 ± 0.0
The number of washes within 15 minutes (grooming) (male balb/c mice; [6]): 6.2 ± 1.3
Number of standing up on hind legs in 15 minutes (vertical activity) (male balb/c mice; [6]): 64.9 ± 4.0
Number of squares crossed within 15 minutes (horizontal activity) (male balb/c mice; [6]): 479.4 ± 29.3
General physical activity for 15 minutes (male balb/c mice; [6]): 545.5 ± 30.4
The number of acts of defecation within 15 minutes (male balb/c mice; [7]): 0.0 ± 0.0
The number of washes within 15 minutes (grooming) (male balb/c mice; [7]): 5.9 ± 1.4
Number of standing up on hind legs in 15 minutes (vertical activity) (male balb/c mice; [7]): 69.0 ± 3.8
Number of squares crossed within 15 minutes (horizontal activity) (male balb/c mice; [7]): 448.4 ± 16.4
General physical activity for 15 minutes (male balb/c mice; [7]): 523.3 ± 16.6
Toxic influence on approximate-research behaviour in the open field test (male balb/c mice; intragastric administration, 0.75-30 mg/kg, no statistically significant differences to control): did not have the toxic influence
